Measurements: patent US4239744A, “Radioreceptor assay for benzodiazepines in plasma and other biological specimens” (United States of America, priority 1978, dated 1980)

Test system: binding sites for [^3 H] diazepam (benzodiazepine receptor), rat cerebral cortex synaptosomal membranes
Test: Radioreceptor assay: inhibition of [3H]diazepam binding to rat synaptosomal membranes by drugs dissolved in plasma
Details: for plasma concentration that could be reliably measured by inhibition of [3H]diazepam binding: benzodiazepine dissolved in plasma, assayed in triplicate, from standard curve in figure; for potency rank among the benzodiazepines tested in inhibiting [3H]diazepam binding: four benzodiazepines: clonazepam, N-demethyldiazepam, flurazepam
Protocol: Blood samples to be assayed are drawn into heparinized tubes and the plasma then separated therefrom by centrifugation at […]. Two-hundred μl of plasma is then pipetted into microtubes, e.g., Eppendorf Microtubes (Brinkman Instruments, Westbury, N.Y.) and diluted 1:10 with water. Samples are mixed by inversion and the plasma precipitated with 50 μl of perchloric acid. The samples are then vortexed briefly and centrifuged in a microcentrifuge, e.g., an Eppendorf Microfuge (Brinkman Instruments, Westbury, N.Y.), for three minutes. Twenty-five μl of the clear supernatant is withdrawn and added to 375 μl of distilled water in 16×125 mm glass tubes. Assays are thereafter performed at 0°-4° C. as follows:
The incubation is terminated after 15 min with a 5 ml wash of ice-cold […] Tris buffer (2-amino-2-hydroxymethyl-1,3-propanediol) at pH 7.4, and immediately filtered through Whatman GF/B filters in a filtering device, e.g., a Millepore filtering bank (Model 1225, Millipore Corp., Bedford, Mass.) The filters are immediately washed with an additional 5 ml of ice-cold buffer. The filters are airdried and suspended in a scintillation fluor, e.g., in 10 ml "Aquasol" (New England Nuclear, Boston, Mass.) and the radiation measured in a liquid scintillation counter, e.g., a Beckman LS-355 liquid scintillation counter.
Standard curves were constructed by adding known amounts of benzodiazepine to plasma, diluting the plasma (1:5 or 1:10) with water, and proceeding in an identical manner to unknown samples. […] The percent inhibition of specific binding by plasma samples is defined as: [formula] […] The slope and intercept of these lines were determined by least mean squares regression analysis and the benzodiazepine concentrations in unknown plasma samples computed from these values.
The synaptosomal membranes suspension described above is prepared as follows:
(a) homogenize rat brains in 20 volumes of ice-cold 0.32 M sucrose (using a Potter-Elvehjern homogenizer);
(b) centrifuge the resulting suspension obtained in step (a) at 1000×g for 10 minutes;
(c) centrifuge the supernatent obtained in step (b) at 20,000×g for 20 minutes; and
(d) resuspend the pellet obtained in step (c) in 40 volumes of Tris buffer to a final protein concentration of approximately 1 mg/ml.

SMILES | plasma concentration that could be reliably measured by inhibition of [3H]diazepam binding | potency rank among the benzodiazepines tested in inhibiting [3H]diazepam binding | potency in inhibiting [3H]diazepam binding relative to the parent compound diazepam (from standard curves in figure)
O=C1CN=C(c2ccccc2Cl)c2cc([N+](=O)[O-])ccc2N1 [Clonazepam, clonazepam] | 10 ng/mL | most potent | 
CCN(CC)CCN1C(=O)CN=C(c2ccccc2F)c2cc(Cl)ccc21 [flurazepam] | approximately 100 ng/ml | least potent | 
O=C1CN=C(c2ccccc2)c2cc(Cl)ccc2N1 [N-demethyldiazepam] |  |  | about 85%
